Results from patent US10383848B2, “Indole-based therapeutics” (Creighton University, priority 2016, dated 2019).
In brackets after ≈: the same amount, converted by molar mass. Read-outs that look alike come from different tables or passages of the source.

How the values were obtained:
[1] = system: M. abscessus ATCC 19977; test: MIC, resazurin microtiter assay; assay type: cell-based; settings: Mycobacteroides abscessus
[2] = system: M. abscessus DCI #21; test: MIC, resazurin microtiter assay; assay type: cell-based; settings: for MIC: Mycobacteroides abscessus, read-out: MIC M. abscessus DCI #21
[3] = system: M. massiliense CIP 108297; test: MIC, resazurin microtiter assay; assay type: cell-based; settings: Mycobacteroides abscessus
[4] = system: M. massiliense CRM 0019; test: MIC, resazurin microtiter assay; assay type: cell-based; settings: for MIC: Mycobacteroides abscessus
[5] = system: M. bolletii ATCC 14472; test: MIC, resazurin microtiter assay; assay type: cell-based; settings: for MIC: Mycobacteroides abscessus
[6] = system: M. chelonae ATCC 35752; test: MIC, resazurin microtiter assay; assay type: cell-based; settings: Mycobacteroides chelonae
[7] = system: M. tuberculosis H37Rv mc^26206; test: microbe, parasite or virus in culture; assay type: cell-based; settings: for Selectivity Index (TD50/MIC) M. tb H37Rv: TD50 in THP-1 cells
[8] = system: M. smegmatis mc^2155; test: MIC, resazurin microtiter assay; assay type: cell-based; settings: Mycolicibacterium smegmatis
[9] = system: M. intracellulare 1956; test: MIC, resazurin microtiter assay; assay type: cell-based; settings: read-out: MIC M. avium Intracellulare 1956
[10] = system: M. xenopi WT; test: MIC, resazurin microtiter assay; assay type: cell-based; settings: Mycobacterium xenopi, read-out: MIC M. xenopi WT
[11] = system: P. aeruginosa PAO-1; test: MIC, resazurin microtiter assay; assay type: cell-based, Pseudomonas aeruginosa; settings: for MIC: Pseudomonas aeruginosa
[12] = system: S. aureus ATCC25923; test: MIC, resazurin microtiter assay; assay type: cell-based; settings: Staphylococcus aureus
[13] = system: mycobacteria; test: organism not typed; assay type: cell-based; settings: lowest concentration reducing CFU by 90% relative to the inoculum; strain not stated; read-out: MBC90
[14] = system: THP-1 cells; test: Cytotoxicity assay, THP-1 cell viability (CellTiter-Glo); assay type: cell-based, human; settings: 3 days
Description: The cytotoxicity of compounds was determined by measuring THP-1 cell viability after 3 days in the presence of test compounds. Compounds were prepared as 10-point serial dilutions in DMSO. The highest concentration of compound tested was 50 μM where compounds were soluble in DMSO at 10 mM. THP-1 cells were cultured in complete RPMI and differentiated into macrophage-like cells using 80 nM PMA overnight at 37° C., 5% CO2. Cells were inoculated into assay plates and cultured for 24 h before compound dilutions were added to a final DMSO concentration of 0.5%. Each run included staurosporine as a control. Assay plates were incubated for 3 days at 37° C., 5% CO2, growth was measured using the CellTiter-Glo® Luminescent Cell Viability Assay (Promega) which uses ATP as an indicator of cell viability. Relative luminescent units (RLU) were measured using a Biotek Synergy 4 plate reader. The dose response curve was fitted using the Levenberg-Marquardt algorithm.

[15] = system: M. abscessus 103; test: MIC/MBC by microbroth dilution (MH or 7H9 broth); assay type: cell-based, M. abscessus subsp. bolletii
[16] = system: M. abscessus 1513; test: MIC/MBC by microbroth dilution (MH or 7H9 broth); assay type: cell-based, M. abscessus subsp. abscessus
[17] = In vivo acute toxicity assay (Maximum Tolerated Dose); design: species or system Balb/C mice; settings: 100, 200 and 300 mg/kg for 3 consecutive days of dosing, gavage, mice
Description: 6-8 week old Balb/C female mice were ordered from Charles River. Mice were rested one to two weeks before dosing. For each dose of compound, 3 mice were utilized. […] Compound was given twice per day for 3 consecutive days by gavage, at 100 μl/mouse. Compounds were prepared the day before or the day of dosing and stored at 4° C. until dosing. The time of dosing was recorded for each mouse. Observations were recorded immediately, at 10 min, 1 hour, 2 hours, 4 hours, and 24 hours after dosing. […] Mice were dosed for three days and on the fourth day mice were observed twice daily for two days, then once daily for five days.
As an initial in vivo study, the safety of compounds and preliminary pharmacokinetics was assessed in an acute toxicity mouse model (Maximum Tolerated Dose assay, MTD) to evaluate any potential adverse effects and determine a safe dose for mouse efficacy studies. Compounds were tested to ensure safe use in healthy mice prior to any further in vivo testing. […] Novel compounds were generally administered to mice at 40, 75 and 100 mg/kg in a tested formulation, administered on three consecutive days, 3 mice per dose group, in the chosen formulation. […] Mice were observed 10 min, 1, 2, 4 hours after dosing and then daily afterwards. During the observations, humane handling practices and animal welfare regulations were strictly followed. […]

[18] = Dose response pharmacokinetics, plasma concentration by LC-MS/MS; assay type: in vivo, BALB/c mice; settings: single oral dose 100 and 200 mg kg^-1, 2 and 4 h, mice
Description: P.O. dosing at 100, 200 and 300 mg kg^−1 was administered; after administration, blood was collected at 2 and 4 hour time points for quantification. Plasma concentration of the compounds 5 and 25 was determined using liquid chromatography tandem mass spectrometry. Data are presented as mean±SD.
Female BALB/c mice were given a dose of compounds 5 or 25 at 100, 200 and 300 mg kg′ by oral gavage in a volume of 0.2 mL. At 2 and 4 hours after compound administration, animals were euthanized and cardiac blood (approximately 0.7 mL) was collected. Plasma was separated using centrifugation at 12,000 g for 20 min at 4° C. and stored at […]. Concentrations of compounds 5 and 25 in plasma were analyzed with LC-tandem MS (LC-MS/MS, AB SCIEX QTRAP 5500 system) with warfarin as internal standard. MS detection of mass transitions 295.2/135.2 (Compound 5), 299.2/146.1 (Compound 25) and 309.1/163.0 (Warfarin) was carried out. Concentration calculation was performed with MultiQuant Software (Version 2.1, AB SCIEX). The pharmacokinetic profile of the test compound was analyzed from plasma concentration-time data after oral administration.

[19] = system: panel of mycobacteria; test: MIC against a panel of mycobacteria (summary ranges); assay type: cell-based; settings: M. avium and M. xenopi strains of Table 3
[20] = system: M. abscessus 103; settings: mouse, in vivo, 300 mg/kg
[21] = system: M. abscessus 103; test: Acute SCID mouse infection efficacy model; settings: for log10 CFU liver counts on day 12 / log10 CFU spleen counts on day 12: SCID mice i.v. infected with M. abscessus 103, compounds 300 mg/kg PO in 20% cyclodextrin, AMI 150 mg/kg SQ, once daily 8 days
[22] = system: M. massiliense strain 1513; test: Metabolic labeling and mycolic acid analysis; settings: 4x and 10x MIC, 16 hr, [1,2-14C]acetate labeling, TLC
Description: Cultures of M. massiliense 1513 grown to mid log-phase in Mueller-Hinton II broth were incubated with different concentrations of inhibitors for 16 hr at 37° C. with shaking. 0.5 μCi/mL [1,2-^14C]acetic acid (specific activity, 52 Ci/mol, PerkinElmer Inc.) was added at the same time as the inhibitors. Total lipids and cell wall-bound mycolic acid methyl esters were prepared from treated and untreated cells and analyzed by TLC as described in Grzegorzewicz et al, Nature Chemical Biology, 2012, 8:334+341.

[23] = system: M. avium 104; test: MIC, resazurin microtiter assay; assay type: cell-based; settings: Mycobacterium avium, 104, read-out: MIC M. avium 104
[24] = infected SCID mice, daily 300 mg/kg in 20% cyclodextrin

## Cc1cc(C)c2cc(C(=O)NC3CCCCCCC3)[nH]c2c1 [Compound 25, N-cyclooctyl-4,6-dimethyl-1H-indole-2-carboxamide]
[1]; ATCC19977, Mueller Hinton II, read-out: MIC M. abscessus ATCC 19977
  MIC: 0.063 mg/L (≈ 0.211 µM)
[2]; Mueller Hinton II
  MIC: 0.0078 mg/L (≈ 0.0261 µM)
[3]; CIP108297, Mueller Hinton II, read-out: MIC M. massiliense CIP 108297
  MIC: 0.031 mg/L (≈ 0.104 µM)
[4]; CRM0019, Mueller Hinton II, read-out: MIC M. massiliense CRM 0019
  MIC: 0.0078 mg/L (≈ 0.0261 µM)
[5]; ATCC14472, Mueller Hinton II, read-out: MIC M. bolletii ATCC 14472
  MIC: 0.0039 mg/L (≈ 0.0131 µM)
[6]; ATCC35752, Mueller Hinton II, read-out: MIC M. chelonae ATCC 35752
  MIC: 0.063 mg/L (≈ 0.211 µM)
[7]
  Selectivity Index (TD50/MIC) M. tb H37Rv: >764
[8]; MC^2155, 7H9-ADC-0.05% Tween 80, read-out: MIC M. smeg. mc^2155
  MIC: 0.313 to 0.625 mg/L (≈ 1.05 to 2.09 µM)
[9]; Mueller Hinton II
  MIC: 1 mg/L (≈ 3.35 µM)
[10]; Mueller Hinton II
  MIC: 0.25 mg/L (≈ 0.838 µM)
[11]; Mueller Hinton II
  MIC P. aeruginosa PAO-1: inactive
[11]; PAO1, Mueller Hinton II, read-out: MIC P. aeruginosa PAO-1
  MIC: > 160 mg/L
[12]; ATCC25923, Mueller Hinton II, read-out: MIC S. aureus ATCC25923
  MIC: > 160 mg/L
[13]
  MBC: 0.015 mg/L (≈ 0.0503 µM)
[14]
  TD50: >14.9 µg/mL
[15]; Mycobacteroides abscessus, 103; MH broth; read-out: MBC99 M. abscessus subsp. bolletii 103
  MBC: 64 mg/L (≈ 214 µM)
[15]; Mycobacteroides abscessus, 103; read-out: MIC M. abscessus 103, 7H9 Broth
  MIC: > 64 mg/L
[15]; Mycobacteroides abscessus, 103; read-out: MIC M. abscessus 103, MH Broth
  MIC: 16 mg/L (≈ 53.6 µM)
[16]; Mycobacteroides abscessus, 1513; MH broth; read-out: MBC99 M. abscessus subsp. abscessus 1513
  MBC: 64 mg/L (≈ 214 µM)
[16]; Mycobacteroides abscessus, 1513; read-out: MIC M. abscessus 1513, 7H9 Broth
  MIC: > 64 mg/L
[16]; Mycobacteroides abscessus, 1513; read-out: MIC M. abscessus 1513, MH Broth
  MIC: 16 mg/L (≈ 53.6 µM)
[17]
  Tolerability (acute toxicity, MTD): well tolerated
[18]
  Blood concentration compared to compound 5: lower blood concentration
[19]
  MIC range in MAC panel: 0.25 to 1 mg/L
[20]
  Survival until the Day 12 endpoint: all animals survived
  Weight loss: didn't demonstrate any significant weight loss
[21]
  log10 CFU liver counts on day 12: 4.90±0.49 log10 CFU
  log10 CFU spleen counts on day 12: 2.91±0.45 log10 CFU
[22]
  TMM build-up and mycolic acid transfer onto arabinogalactan and TDM: concentration-dependent build-up of TMM

## O=C(NC12CC3CC(CC(C3)C1)C2)c1cc2ccccc2[nH]1 [Compound 5, N-(1-adamantyl)-1H-indole-2-carboxamide]
[1]; ATCC19977, read-out: MIC M. abscessus ATCC 19977
  MIC: 0.25 mg/L (≈ 0.849 µM)
[2]
  MIC: 0.25 mg/L (≈ 0.849 µM)
[2]; TD50 in THP-1 cells
  Selectivity Index (TD50/MIC) M. abscessus DCI #21: >58
[3]; CIP108297, read-out: MIC M. massiliense CIP 108297
  MIC: 0.5 mg/L (≈ 1.7 µM)
[4]; CRM0019, read-out: MIC M. massiliense CRM 0019
  MIC: 0.25 mg/L (≈ 0.849 µM)
[4]; TD50 in THP-1 cells
  Selectivity Index (TD50/MIC) M. Massiliense CRM0019: >58
[5]; ATCC14472, read-out: MIC M. bolletii ATCC 14472
  MIC: 0.25 mg/L (≈ 0.849 µM)
[5]; TD50 in THP-1 cells
  Selectivity Index (TD50/MIC) M. bolletii: >58
[6]; ATCC35752, read-out: MIC M. chelonae ATCC 35752
  MIC: 0.25 mg/L (≈ 0.849 µM)
[7]; Mycobacterium tuberculosis, H37RV, read-out: MIC M. tb H37 Rv (mc2-6206)
  MIC: 0.2 mg/L (≈ 0.679 µM)
[7]
  Selectivity Index (TD50/MIC) M. tb H37Rv: >73
[8]; MC^2155, read-out: MIC M. smeg. mc^2155
  MIC: 1.56 mg/L (≈ 5.3 µM)
[23]
  MIC: 8 mg/L (≈ 27.2 µM)
[9]
  MIC: 8 mg/L (≈ 27.2 µM)
[10]
  MIC: 0.5 to 1 mg/L (≈ 1.7 to 3.4 µM)
[11]; Mueller Hinton II
  MIC P. aeruginosa PAO-1: inactive
[11]; PAO1, read-out: MIC P. aeruginosa PAO-1
  MIC: > 160 mg/L
[12]; ATCC25923, read-out: MIC S. aureus ATCC25923
  MIC: > 160 mg/L
[14]
  TD50: >14.7 µg/mL
[15]; Mycobacteroides abscessus, 103, read-out: MIC M. abscessus 103, 7H9 Broth
  MIC: > 64 mg/L
[15]; Mycobacteroides abscessus, 103, read-out: MIC M. abscessus 103, MH Broth
  MIC: 16 mg/L (≈ 54.3 µM)
[16]; Mycobacteroides abscessus, 1513, read-out: MIC M. abscessus 1513, 7H9 Broth
  MIC: > 64 mg/L
[16]; Mycobacteroides abscessus, 1513, read-out: MIC M. abscessus 1513, MH Broth
  MIC: 32 mg/L (≈ 109 µM)
[17]
  Tolerability (acute toxicity, MTD): well tolerated
[21]
  log10 CFU liver counts on day 12: 5.30±0.23 log10 CFU
  log10 CFU spleen counts on day 12: 3.79±0.40 log10 CFU
[21]; [24]
  Survival until the Day 12 endpoint: all animals survived
  Weight loss: didn't demonstrate any significant weight loss
[22]
  TMM build-up and mycolic acid transfer onto arabinogalactan and TDM: concentration-dependent build-up of TMM
